{"source": "BindingDB's records for doi:10.1021/jm00381a002", "about": "(1985)", "note": "Where a SMILES comes first, the peptide text is derived from it.", "data": [{"target": "gastrin/CCK-B receptor (Rattus norvegicus)", "assay": "Inhibitory activity against binding of [125I](Nle11)-HG-13 to gastrin receptor in vitro", "units": {"IC50": "µM"}, "values": [{"smiles": "CC[C@H](C)[C@H](NC(=O)[C@H](Cc1c[nH]c2ccccc12)NC(=O)OC(C)(C)C)C(=O)N[C@@H](CC(=O)O)C(N)=O", "note": "(HELM PEPTIDE1{[CC(C)(C)OC(=O)[*:2]].W.I.D.[am]}$$$$V2.0)", "IC50": 50}, {"smiles": "CC(C)(C)OC(=O)N[C@@H](Cc1c[nH]c2ccccc12)C(=O)N1CCC[C@H]1C(=O)N[C@@H](CC(=O)O)C(N)=O", "note": "[3-({1-[2-tert-Butoxycarbonylamino-3-(1H-indol-3-yl)-propionyl]-pyrrolidine-2-carbonyl}-amino)-succinamic acid] (HELM PEPTIDE1{[CC(C)(C)OC(=O)[*:2]].W.P.D.[am]}$$$$V2.0)", "IC50": 100}, {"smiles": "CSCC[C@H](NC(=O)[C@H](Cc1c[nH]c2ccccc12)NC(=O)CNC(=O)OC(C)(C)C)C(=O)N[C@@H](CC(=O)O)C(N)=O", "note": "[3-{2-[2-(2-tert-Butoxycarbonylamino-acetylamino)-3-(1H-indol-3-yl)-propionylamino]-4-methylsulfanyl-butyrylamino}-succinamic acid] (HELM PEPTIDE1{[CC(C)(C)OC(=O)[*:2]].G.W.M.D.[am]}$$$$V2.0)", "IC50": 25}, {"smiles": "CC(C)C[C@H](NC(=O)[C@H](Cc1c[nH]c2ccccc12)NC(=O)OCc1ccccc1)C(=O)N[C@@H](CC(=O)O)C(N)=O", "note": "[3-{2-[2-Benzyloxycarbonylamino-3-(1H-indol-3-yl)-propionylamino]-4-methyl-pentanoylamino}-succinamic acid] (HELM PEPTIDE1{[O=C(OCc1ccccc1)[*:2]].W.L.D.[am]}$$$$V2.0)", "IC50": 40}, {"smiles": "CC(C)(C)OC(=O)N[C@@H](Cc1c[nH]c2ccccc12)C(=O)N[C@@H](Cc1ccccc1)C(=O)N[C@@H](CC(=O)O)C(N)=O", "note": "[3-{2-[2-tert-Butoxycarbonylamino-3-(1H-indol-3-yl)-propionylamino]-3-phenyl-propionylamino}-succinamic acid] (HELM PEPTIDE1{[CC(C)(C)OC(=O)[*:2]].W.F.D.[am]}$$$$V2.0)", "IC50": 30}, {"smiles": "CC(C)C[C@H](NC(=O)[C@H](Cc1c[nH]c2ccccc12)NC(=O)OC(C)(C)C)C(=O)N[C@@H](CC(=O)O)C(=O)N(C)C", "note": "[3-{2-[2-tert-Butoxycarbonylamino-3-(1H-indol-3-yl)-propionylamino]-4-methyl-pentanoylamino}-N,N-dimethyl-succinamic acid] (HELM PEPTIDE1{[CC(C)(C)OC(=O)[*:2]].W.L.D.[CN(C)[*:1]]}$$$$V2.0)", "IC50": 100}, {"smiles": "CC(C)CC(NC(=O)[C@H](Cc1c[nH]c2ccccc12)NC(=O)OC(C)(C)C)C(=O)N[C@@H](CC(=O)O)C(N)=O", "note": "(some centres not stated) [3-{2-[2-tert-Butoxycarbonylamino-3-(1H-indol-3-yl)-propionylamino]-4-methyl-pentanoylamino}-succinamic acid]", "IC50": 50}, {"smiles": "CSCC[C@H](NC(=O)[C@H](Cc1c[nH]c2ccccc12)NC(=O)OC(C)(C)C)C(=O)N[C@@H](CC(=O)O)C(N)=O", "note": "[3-{2-[2-tert-Butoxycarbonylamino-3-(1H-indol-3-yl)-propionylamino]-4-methylsulfanyl-butyrylamino}-succinamic acid] (HELM PEPTIDE1{[CC(C)(C)OC(=O)[*:2]].W.M.D.[am]}$$$$V2.0)", "IC50": 30}, {"smiles": "CCCC[C@H](NC(=O)[C@H](Cc1c[nH]c2ccccc12)NC(=O)OC(C)(C)C)C(=O)N[C@@H](CC(=O)O)C(N)=O", "note": "[3-{2-[2-tert-Butoxycarbonylamino-3-(1H-indol-3-yl)-propionylamino]-hexanoylamino}-succinamic acid] (HELM PEPTIDE1{[CC(C)(C)OC(=O)[*:2]].W.[Nle].D.[am]}$$$$V2.0)", "IC50": 30}, {"smiles": "CC(C)C[C@H](NC(=O)[C@H](Cc1c[nH]c2ccccc12)NC(=O)OC(C)(C)C)C(=O)N[C@@H](CCC(=O)O)C(N)=O", "note": "[4-{2-[2-tert-Butoxycarbonylamino-3-(1H-indol-3-yl)-propionylamino]-4-methyl-pentanoylamino}-4-carbamoyl-butyric acid] (HELM PEPTIDE1{[CC(C)(C)OC(=O)[*:2]].W.L.E.[am]}$$$$V2.0)", "IC50": 20}, {"smiles": "O=C(N[C@@H](Cc1c[nH]c2ccccc12)C(=O)O)c1ccc(Cl)cc1", "note": "[(S)-2-(4-Chloro-benzoylamino)-3-(1H-indol-3-yl)-propionic acid]", "IC50": 250}, {"smiles": "CC(C)C[C@H](NC(=O)[C@H](Cc1c[nH]c2ccccc12)NC(=O)OC(C)(C)C)C(=O)N[C@@H](C)C(N)=O", "note": "[[1-[1-(1-Carbamoyl-ethylcarbamoyl)-3-methyl-butylcarbamoyl]-2-(1H-indol-3-yl)-ethyl]-carbamic acid tert-butyl ester] (HELM PEPTIDE1{[CC(C)(C)OC(=O)[*:2]].W.L.A.[am]}$$$$V2.0)", "IC50": 150}]}]}
